According to EP0364581A1, “METHOD OF STERILIZING PLANT POLLEN” (VSESOJUZNY NAUCHNO-ISSLEDOVATELSKY INST. SELSKOKHOZYAISTV. …, priority 1988, dated 1989):
Like-named read-outs stand apart in the source and are kept apart here.

Tests used:
[1] = tested on: Sommerweizens Sorte Rodina; assay: field test of gametocidal activity (sterilisation of anthers); type: in vivo, Sommerweizen; conditions: V. und VI. Periode, 1%ige wäßrige Emulsion, 6 kg/ha; for Prozentsatz des Ansetzens der Körner bei freier Bestäubung: control = 100
Excerpt: (§1) Die gametozide Aktivität der erfindungsgemäßen Sterilisationsmittel war in Feldversuch in verschiedenen bodenklimatischen Zonen mit Teilstücken von 10 m^2 Größe in drei-- bis viermaliger Wiederholung nachgewiesen. Jedes Sterilisationsmittel wurde mindestens 5 Jahre lang geprüft.
(§2) Die Entwicklung der Perioden der Organogenese wird zytologisch überwacht. Die Behandlung von Pflanzen mit dem Sterilisationsmittel erfolgt am Anfang der fünften Periode der Organogenese nach Kupermann.
(§3) Mit dem Ahrenschieben verwirklicht man die Isolierung von Hauptähren und anderen Stockwerken in Pergamentbeuteln. Bei Weizen und Tritikale werden Einzelisolatoren verwendet. Bei Roggen schließt man je 1 Ähre von 5 bis 7 verschiedenen nebeneinander befindlichen Pflanzen in einen gemeinsamen Isolator ein. Bei Hirse wird jede Rispe getrennt isoliert. Der Sterilitätsprozentsatz (X) für Weizen, Roggen, Tritikale und Hirse wird nach der Formel [formula]
(§4) Samen von unbehandelten Kontrollpflanzen ermittelt.
(§5) Die Kornzahl in nicht isolierten Ähren von Kontrollpflanzen wird bedingt für 100% Ansetzen bei freier Bestäubung angenommen.
(§6) Um zuverlässige Angaben zu erhalten, verwendet man 20 bis 25 Isolatoren jeder Wiederholung für Weizen und Tritikale, 10 bis 15 Isolatoren jeder Wiederholung für Roggen und Hirse.
Pflanzen des Sommerweizens Sorte Rodina werden in der V. und VI. Periode der Organogenese (nach Kupermann) mit einer l%igen wäßrigen Emulsion von Ammoniumsalz der 2-Methyl-3-zyklohexenkarbonsäure, Phthalsäuredihexylester, Phthalsäurediisobutylester behandelt. Die Emulsion enthält 0,01 Masse% Dodezysulfat und 0,1 Masse% C12-C14--Kalziumalkylbenzolsulfonat. Der Verbrauch an Präparat beträgt 6 kg/ha. Als Kontrolle dienen Pflanzen, behandelt mit einem Verdünner ohne Sterilisationsmittel.

[2] = tested on: diploidem Roggen Sorte Belorusskaya 23; assay: as above; type: in vivo; conditions: V. und VI. Periode, 1%ige wäßrige Emulsion, 6 kg/ha; for Prozentsatz des Ansetzens der Körner bei freier Bestäubung: control = 100
Excerpt: as §1, §2, §3, §4, §5, §6
Pflanzen von diploidem Roggen Sorte Belorusskaya 23 werden in der V. und VI. Periode der Organogenese (nach Kupermann) mit einer 1%igen wäßrigen Emulsion von Phthalsäuredibutylester, Kaliumsalz der 2-Methyl-3-zyklohexenkarbonsäure behandelt. Die Emulsion enthält 0,01 Masse% Dodezylsulfat, und 0,1 Masse% C12-C14-Kalziumalkylbenzolsulfonat.
Der Verbrauch an Präparat beträgt 6 kg/ha. Als Kontrolle dienen Pflanzen, behandelt mit einem Verdünner ohne Sterilisationsmittel.

[3] = tested on: Sonnenblume Sorte Peredovik; assay: field test of chemical sterilisation of sunflower pollen; type: in vivo; conditions: V. Periode
Excerpt: as §1, §2
(§7) Zur Kontrolle der chemischen Sterilisation des Sonnenblumenpollens werden für jede Verbindung 45 behandelte Pflanzen jeder Wiederholung benutzt, wobei 15 Pflanzen zwecks Selbsbestäubung isoliert werden, Blutenkörbchen von 15 anderen Pflanzen mit einem Pollengemisch, gesammelt von 20 bis 25 behandelten isolierten Körbchen, bestäubt werden, und 15 Pflanzen für freie Bestäubung gelassen werden, damit das Ansetzen von Achänen mit dem Pollen der Vaterform kontrolliert werden kann.
(§8) Man beurteilt die Pollensterilität von Pflanzen der Sonnenblume nach der Pollenfertilität und -keimfahigkeit, nach den morphologischen Besonderheiten von Spermien und nach der Fähigkeit von Achänen zum Ansetzen bei der Bestäubung der behandelten isolierten Pflanzen mit dem Pollen der unbehandelten väterlischen Form. Die Läbensfähigkeit der Eizelle wird nach der Samenbildung bei behandelten Pflanzen bei freier Bestäubung der väterlichen Form bestimmt.
Pflanzen der Sonnenblume Sorte Peredovik werden in der V. […] Die Emulsion enthält 0,01 Masse% Dimethylsulfoxid und 0,1 Masse% C12-C14-Kalziumalkylbenzolsulfonat. Die Sonnenblume Linie VK-119 werden mit einer 0,2%igen wäßrigen Emulsion von Phthalsäuredibutylester, 0,1%igen wäßrigen Emulsion von Phthalsäurediäthylester, Kaliumsalz der 2-Methyl-3-zyklohexenkarbonsäure, 1%igen wäßrigen Emulsion von Natriumsalz der. 2-Methyl-3-zyklohexen- karbonsäure und 0,01%igen wäßrigen Emulsion von 2-Methyl--3-zyklohexenkarbonsäuremethylester behandelt. Die Emulsion enthält 0,01 Masse% Dimethylformamid und 0,1 Masse% C12-C14--Kalziumalkylbenzolsulfonat.
(§9) Als Kontrolle in allen Fällen dienen Pflanzen, behandelt mit einem Verdünner ohne Sterilisationsmittel.

[4] = tested on: Sonnenblume Linie VK-119; assay: as above; type: in vivo; conditions: Linie BK-119
Excerpt: as §1, §2, §7, §8
Pflanzen der Sonnenblume Sorte Peredovik werden in der V. Periode der Organogenese (nach Kupermann) mit einer 0,5%igen wäßrigen Emulsion von Phthalsäuredibutylester, Phthalsäurediäthylester, Kaliumsalz der 2-Methyl-3-zyklohexenkarbonsäu- re, Natriumsalz der 2-Methyl-3-zyklohexenkarbonsäure sowie mit einer 0,05%igen wäßrigen Emulsion von 2-Methyl-3-zyklo- hexenkarbonsäuremethylester behandelt. Die Emulsion enthält 0,01 Masse% Dimethylsulfoxid und 0,1 Masse% C12-C14-Kalziumalkylbenzolsulfonat. Die Sonnenblume Linie VK-119 werden mit einer 0,2%igen wäßrigen Emulsion von Phthalsäuredibutylester, 0,1%igen wäßrigen Emulsion von Phthalsäurediäthylester, Kaliumsalz der 2-Methyl-3-zyklohexenkarbonsäure, 1%igen wäßrigen Emulsion von Natriumsalz der. 2-Methyl-3-zyklohexen- karbonsäure und 0,01%igen wäßrigen Emulsion von 2-Methyl--3-zyklohexenkarbonsäuremethylester behandelt. Die Emulsion enthält 0,01 Masse% Dimethylformamid und 0,1 Masse% C12-C14--Kalziumalkylbenzolsulfonat.
as §9

[5] = tested on: Sonnenblume Linie BK-373; assay: as above; type: in vivo
Excerpt: as §1, §2, §7, §8
Die Sonnenblume Linie BK-373 werden mit einer 0,2%igen wäßrigen Emulsion von Phthalsäuredibutylester, 0,1%igen wäßrigen Emulsion von Kaliumsalz der 2-Methyl-3-zyklohexylkar- bonsäuremethylester und 0,2%igen wäßrigen Emulsion von Phthalsäurediäthylester behandelt. Die Emulsion enthält 0,01 Masse% Dodezylsulfat und 0,1 Masse% C12-C14-Kalziumalkylbenzolsulfonat.
as §9

[6] = acute toxicity in animals; set-up: species or system weiße Ratten; conditions: rat, in vivo
Excerpt: (§10) Alle erfindungsgemäßen Karbonsäurederivate, die als Sterilisationsmittel zur Verwendung kommen, waren auf die akute Toxizität im Tierversuch geprüft. Die Prüfergebnisse haben ergeben, daß die angegebenen Verbindungen von schwacher oder mittlerer Toxizität sind.

[7] = acute toxicity in animals; conditions: mouse, in vivo, po; weiße Mäuse; einmalige Einführung in den Magen
Excerpt: as §10

[8] = Präparat 0,05 Masse%, 0,3 kg/ha
[9] = Präparat 0,01 Masse%, 0,06 kg/ha

CC1C=CCCC1C(=O)O.N (stereo not drawn) [Beispiel 34, Ammoniumsalz der 2-Methyl-3-zyklohexenkarbonsäure]
Kornzahl der Ähre bei freier Bestäubung [1]: 30,8 | Kornzahl der Ähre im Isolator [1]: 0,0 | Prozentsatz der Sterilität [1]: 100,0% | Prozentsatz des Ansetzens der Körner bei freier Bestäubung [1]: 84,1%

CCCCCCOC(=O)c1ccccc1C(=O)OCCCCCC [Beispiel 35, Phthalsäuredihexylester]
Kornzahl der Ähre bei freier Bestäubung [1]: 33,6 | Kornzahl der Ähre im Isolator [1]: 0,0 | Prozentsatz der Sterilität [1]: 100,0% | Prozentsatz des Ansetzens der Körner bei freier Bestäubung [1]: 91,8%

CC(C)COC(=O)c1ccccc1C(=O)OCC(C)C [Beispiel 36, Phthalsäurediisobutylester]
Kornzahl der Ähre bei freier Bestäubung [1]: 31,7 | Kornzahl der Ähre im Isolator [1]: 0,0 | Prozentsatz der Sterilität [1]: 100,0% | Prozentsatz des Ansetzens der Körner bei freier Bestäubung [1]: 86,6%

CCCCOC(=O)c1ccccc1C(=O)OCCCC [Beispiel 74, Phthalsäuredibutylester]
Kornzahl der Ähre bei freier Bestäubung [2]: 42,5 | Kornzahl der Ähre im Isolator [2]: 0,0 | Prozentsatz der Sterilität [2]: 100,0% | Prozentsatz des Ansetzens der Körner bei freier Bestäubung [2]: 94,9%

CC1C=CCCC1C(=O)O (stereo not drawn) [Beispiel 75, Kaliumsalz der 2-Methyl-3-zyklohexenkarbonsäure]
Kornzahl der Ähre bei freier Bestäubung [2]: 43,0 | Kornzahl der Ähre im Isolator [2]: 0,0 | Prozentsatz der Sterilität [2]: 100,0% | Prozentsatz des Ansetzens der Körner bei freier Bestäubung [2]: 95,0%

CCCCOC(=O)c1ccccc1C(=O)OCCCC [Beispiel 103, Phthalsäuredibutylester]
Ansetzen der Achänen bei freier Bestäubung ([3]; Präparat 1,0 Masse%, 6,0 kg/ha): 82,3 | Prozentsatz der Sterilität ([3]; Präparat 1,0 Masse%, 6,0 kg/ha): 100,0%

CCOC(=O)c1ccccc1C(=O)OCC [Beispiel 104, Phthalsäurediäthylester]
Ansetzen der Achänen bei freier Bestäubung ([3]; Präparat 1,0 Masse%, 6,0 kg/ha): 80,0 | Prozentsatz der Sterilität ([3]; Präparat 1,0 Masse%, 6,0 kg/ha): 100,0%

CC1C=CCCC1C(=O)O (stereo not drawn) [Beispiel 105, Kaliumsalz der 2-Methyl-3-zyklohexenkarbonsäu-re]
Ansetzen der Achänen bei freier Bestäubung ([3]; Präparat 1,0 Masse%, 6,0 kg/ha): 85,0 | Prozentsatz der Sterilität ([3]; Präparat 1,0 Masse%, 6,0 kg/ha): 100,0%

CC1C=CCCC1C(=O)O (stereo not drawn) [Beispiel 106, Natriumsalz der 2-Methyl-3-zyklohexenkarbonsäure]
Ansetzen der Achänen bei freier Bestäubung ([3]; Präparat 1,0 Masse%, 6,0 kg/ha): 84,1 | Prozentsatz der Sterilität ([3]; Präparat 1,0 Masse%, 6,0 kg/ha): 100,0%

COC(=O)C1CCC=CC1C (stereo not drawn) [Beispiel 107, 2-Methyl-3-zyklo-hexenkarbonsäuremethylester]
Ansetzen der Achänen bei freier Bestäubung [3, 8]: 83,8 | Prozentsatz der Sterilität [3, 8]: 100,0%

CCCCOC(=O)c1ccccc1C(=O)OCCCC [Beispiel 108, Phthalsäuredibutylester]
Ansetzen der Achänen bei freier Bestäubung ([4]; Präparat 0,2 Masse%, 1,2 kg/ha): 83,5 | Prozentsatz der Sterilität ([4]; Präparat 0,2 Masse%, 1,2 kg/ha): 100,0%

CCOC(=O)c1ccccc1C(=O)OCC [Beispiel 109, Phthalsäurediäthylester]
Ansetzen der Achänen bei freier Bestäubung ([4]; Präparat 0,1 Masse%, 0,6 kg/ha): 82,5 | Prozentsatz der Sterilität ([4]; Präparat 0,1 Masse%, 0,6 kg/ha): 100,0%

CC1C=CCCC1C(=O)O (stereo not drawn) [Beispiel 110, Kaliumsalz der 2-Methyl-3-zyklohexenkarbonsäure]
Ansetzen der Achänen bei freier Bestäubung ([4]; Präparat 0,1 Masse%, 0,6 kg/ha): 85,5 | Prozentsatz der Sterilität ([4]; Präparat 0,1 Masse%, 0,6 kg/ha): 100,0%

CC1C=CCCC1C(=O)O (stereo not drawn) [Beispiel 111, Natriumsalz der. 2-Methyl-3-zyklohexen-karbonsäure]
Ansetzen der Achänen bei freier Bestäubung ([4]; Präparat 1,0 Masse%, 6,0 kg/ha): 85,0 | Prozentsatz der Sterilität ([4]; Präparat 1,0 Masse%, 6,0 kg/ha): 100,0%

COC(=O)C1CCC=CC1C (stereo not drawn) [Beispiel 112, 2-Methyl--3-zyklohexenkarbonsäuremethylester]
Ansetzen der Achänen bei freier Bestäubung [4, 9]: 85,0 | Prozentsatz der Sterilität [4, 9]: 100,0%

CCCCOC(=O)c1ccccc1C(=O)OCCCC [Beispiel 113, Phthalsäuredibutylester]
Ansetzen der Achänen bei freier Bestäubung ([5]; Präparat 0,2 Masse%, 1,2 kg/ha): 61,5 | Prozentsatz der Sterilität ([5]; Präparat 0,2 Masse%, 1,2 kg/ha): 100,0%

CC1C=CCCC1C(=O)[O-].[K+] (stereo not drawn) [Beispiel 114, Kaliumsalz der 2-Methyl-3-zyklohexenkarbonsäure]
Ansetzen der Achänen bei freier Bestäubung ([5]; Präparat 0,1 Masse%, 0,6 kg/ha): 62,9 | Prozentsatz der Sterilität ([5]; Präparat 0,1 Masse%, 0,6 kg/ha): 100,0%

COC(=O)C1CCC=CC1C (stereo not drawn) [Beispiel 115, 2-Methyl--3-zyklohexenkarbonsäuremethylester]
Ansetzen der Achänen bei freier Bestäubung [5, 9]: 65,7 | Prozentsatz der Sterilität [5, 9]: 100,0%

CCOC(=O)c1ccccc1C(=O)OCC [Beispiel 116, Phthalsäurediäthylester]
Ansetzen der Achänen bei freier Bestäubung ([5]; Präparat 0,2 Masse%, 1,2 kg/ha): 64,6 | Prozentsatz der Sterilität ([5]; Präparat 0,2 Masse%, 1,2 kg/ha): 100,0%

CC1C=CCCC1C(=O)O (stereo not drawn) [Kaliumsalz der 2-Methyl-3-zyklohexenkarbonsäure]
LD50 [6]: 7660 mg/kg

CCCCOC(=O)c1ccccc1C(=O)OCCCC [Phthalsäuredibutylester]
LD50 [7]: 2840 mg/kg | LD50 ([6]; weiße Ratten, einmalige Einführung in den Magen (route printed for Phthalsäuredibutylester), read-out: LD50): 6670 mg/kg
